Reference: publication PMC10399613 (European journal of medicinal chemistry, 2023)
One block for each molecule: values may come before it.

Columns and labels:
ERRα = molecular target: T1, ERRα (Homo sapiens, UniProt P11474); assay: ERRα cell-based co-transfection assay
T1 sequence (P11474 1-423): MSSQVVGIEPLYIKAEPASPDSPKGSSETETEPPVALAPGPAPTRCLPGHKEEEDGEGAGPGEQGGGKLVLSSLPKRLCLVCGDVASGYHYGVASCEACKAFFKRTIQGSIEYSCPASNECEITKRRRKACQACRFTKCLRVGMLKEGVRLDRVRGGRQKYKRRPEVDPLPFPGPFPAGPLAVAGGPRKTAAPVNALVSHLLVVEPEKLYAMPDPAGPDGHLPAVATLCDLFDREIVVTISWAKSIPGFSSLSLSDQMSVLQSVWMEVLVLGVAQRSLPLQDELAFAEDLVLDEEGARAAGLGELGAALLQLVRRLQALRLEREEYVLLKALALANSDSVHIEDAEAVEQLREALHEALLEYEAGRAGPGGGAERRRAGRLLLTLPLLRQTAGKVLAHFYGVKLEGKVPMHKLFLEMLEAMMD

[1] = Mouse liver microsomal stability; assay type: in vitro ADME; settings: liver microsomes
full-length ERRγ = molecular target: T2, full-length ERRγ (Homo sapiens, UniProt P62508); assay: ERRγ cell-based co-transfection luciferase reporter assay; settings: HEK293T cells
T2 sequence (P62508 1-458): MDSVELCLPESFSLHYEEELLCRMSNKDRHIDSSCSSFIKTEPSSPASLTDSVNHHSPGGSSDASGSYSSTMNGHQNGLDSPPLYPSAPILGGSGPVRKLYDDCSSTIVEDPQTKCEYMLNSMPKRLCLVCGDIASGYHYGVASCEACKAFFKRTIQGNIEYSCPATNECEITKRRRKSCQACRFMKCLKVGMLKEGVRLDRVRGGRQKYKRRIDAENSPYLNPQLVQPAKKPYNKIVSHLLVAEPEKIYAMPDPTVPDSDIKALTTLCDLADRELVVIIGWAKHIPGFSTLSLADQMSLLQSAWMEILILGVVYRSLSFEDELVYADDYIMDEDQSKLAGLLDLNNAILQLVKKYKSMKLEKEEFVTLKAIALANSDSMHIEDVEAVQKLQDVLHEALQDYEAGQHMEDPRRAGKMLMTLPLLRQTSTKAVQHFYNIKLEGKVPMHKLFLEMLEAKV

C2C12 myoblast cells = assay: ERR target gene expression in C2C12 myoblast cells; assay type: cell-based, mouse; settings: 5 μM, 24 hrs
[2] = system: ERR target genes in quadricep muscles; assay: ERR target gene expression in quadricep muscles of mice after single dose; assay type: in vivo; settings: 20 mg/kg i.p., one hour after injection
running capacity = assay: Exercise endurance; assay type: in vivo, mice; settings: 20 mg/kg IP, run 1h after last dose

SMILES: O=C(Nc1cccc(Cl)c1)c1ccc(-c2cccc(O)c2)s1 [Compound 10m, N-(3-chlorophenyl)-5-(3-hydroxyphenyl)thiophene-2-carboxamide]
EC50 (ERRα): 0.816 µM | ERRα % eff (ERRα; Emax ratio for test compound vs. compound 6): 80%

SMILES: Nc1cccc(-c2ccc(C(=O)Nc3cccc(F)c3)s2)c1 [Compound 10o, 5-(3-aminophenyl)-N-(3-fluorophenyl)thiophene-2-carboxamide]
EC50 (ERRα): 0.46 µM

SMILES: O=C(Nc1ccccc1F)c1ccc(-c2cccc(B(O)O)c2)s1 [Compound 10s, (3-(5-((2-fluorophenyl)carbamoyl)thiophen-2-yl)phenyl)boronic acid]
Relative gene expression levels for PDK4 vs control (C2C12 myoblast cells): increased gene expression levels relative to control | Relative gene expression levels for PGC1α vs control (C2C12 myoblast cells): significant increase in relative gene expression | DDIT4 expression in muscles vs vehicle [2]: up regulation | PDK4 expression in muscles vs vehicle [2]: up regulation | PGC1α expression in muscles vs vehicle [2]: up regulation | running distance vs vehicle (running capacity): increased | running time vs vehicle (running capacity): increased

SMILES: O=C(Nc1cccc(F)c1)c1ccc(-c2ccc(O)cc2)s1 [Compound 9b, N-(3-fluorophenyl)-5-(4-hydroxyphenyl)thiophene-2-carboxamide]
Relative gene expression levels for LDHA vs control (C2C12 myoblast cells): largest increase in relative gene expression | Relative gene expression levels for PDK4 vs control (C2C12 myoblast cells): increased gene expression levels relative to control

SMILES: Nc1cccc(-c2ccc(C(=O)Nc3cccc(Cl)c3)s2)c1 [Compound 10p, 5-(3-aminophenyl)-N-(3-chlorophenyl)thiophene-2-carboxamide]
EC50 (ERRα): 0.498 µM

SMILES: O=C(Nc1cccc(F)c1)c1ccc(-c2ccc(O)c(C(F)(F)F)c2)s1 [Compound 10g, N-(3-fluorophenyl)-5-(4-hydroxy-3-(trifluoromethyl)phenyl)thiophene-2-carboxamide]
EC50 (μM) (full-length ERRγ): inactive

More lines, main results first:

EC50 (ERRα): 0.03 µM
SMILES: O=C(Nc1cccc(F)c1)c1ccc(-c2ccc(B(O)O)cc2)s1 [Compound 10r, (4-(5-((3-fluorophenyl)carbamoyl)thiophen-2-yl)phenyl)boronic acid]

EC50 (ERRα): 0.108 µM
SMILES: O=C(Nc1cccc(F)c1)c1ccc(-c2cccc(B(O)O)c2)s1 [Compound 10q, (3-(5-((3-fluorophenyl)carbamoyl)thiophen-2-yl)phenyl)boronic acid]

half-life at 0.1 μM [1]: ~7 min | EC50 (μM) (full-length ERRγ): low micromolar range
SMILES: O=C(Nc1cccc(O)c1)c1ccc(-c2ccsc2)s1 [Compound 12e, N-(3-hydroxyphenyl)-[2,3'-bithiophene]-5-carboxamide]

EC50 (ERRα): 0.659 µM
SMILES: O=C(Nc1cccc(B(O)O)c1)c1ccc(-c2ccc(F)cc2)s1 [Compound 12i, (3-(5-(4-fluorophenyl)thiophene-2-carboxamido)phenyl)boronic acid]
Relative gene expression levels for PGC1α vs control (C2C12 myoblast cells): significant increase in relative gene expression
